Laboratory results published in publication PMC5515969, “Effects of 31 FDA approved small-molecule kinase inhibitors on isolated rat liver mitochondria” (Archives of Toxicology, 2016).
Like-named read-outs stand apart in the source and are kept apart here.

Tests used:
[1] = tested on: RCC I; experiment: RCC I activity in submitochondrial particles; type: biochemical, rat; design: key to RCC I at 10XCmax / RCC I at 100XCmax / RCC I at 50XCmax / RCC I at 30XCmax / RCC I at 20XCmax: activity relative to DMSO-treated controls (control set as 1 = 100%); settings: 10XCmax; DMSO treated samples set as 1
Procedure, shortened: (§1)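 Rat submitochondrial particles (1 mg/ml) were treated with test compounds for 15 min. RCC IV, like RCC III, was monitored at 550 nm every 10 s for 2 min, and RCC I/V at 340 nm each minute for 6 min. DMSO samples defined unit activity.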

[2] = tested on: isolated rat liver mitochondria; experiment: Mitochondrial inner membrane potential (MMP), Rhodamine 123; type: biochemical; settings: difference in signal between KI and DMSO treated samples at the end of experiments
Source text: Fig. 3 KI effects on mitochondrial inner membrane potential (MMP). […] In a, c, data are means and standard derivations from three separate experiments. *p < 0.05 as compared to DMSO-treated samples at the end of experiments. In b, data are means of two independent experiments

[3] = tested on: isolated rat liver mitochondria; experiment: Mitochondrial oxygen consumption (glutamate/malate or succinate driven, state 4 and state 3); type: biochemical; settings: DMSO treated samples set as 1; for State 3 respiration driven by succinate at 10XCmax: key: 0 indicates that the drug had no effects (negative); for State 3 respiration driven by succinate at 1XCmax: key: 0 indicates that the drug had no effects (negative)
Procedure, shortened: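 Oxygen uptake on glutamate/malate or on succinate defined state 4; ADP added 3 min later gave state 3. Mitochondria isolated from rat liver by differential centrifugation, adjusted to 1 mg/ml and pretreated 5 min with inhibitor (0.1% DMSO final). Values relative to DMSO control, set to 1.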

[4] = tested on: isolated rat liver mitochondria; experiment: Mitochondrial ROS production (CM-H2DCFDA); settings: DMSO treated samples set as 1
[5] = tested on: RCC V; experiment: RCC V activity in submitochondrial particles; type: biochemical, rat; settings: DMSO treated samples set as 1; for RCC V at 5XCmax: key: 0 indicates that the drug had no effects (negative)
Procedure, shortened: as §1

[6] = tested on: RCC III; experiment: RCC III activity in submitochondrial particles; type: biochemical, rat; design: key to RCC III at 100XCmax: activity relative to DMSO-treated controls (control set as 1 = 100%); settings: 100XCmax
Procedure, shortened: as §1

[7] = tested on: RCC IV; experiment: RCC IV activity in submitochondrial particles; type: biochemical, rat; design: key to RCC IV at 50XCmax / RCC IV at 100XCmax: activity relative to DMSO-treated controls (control set as 1 = 100%); settings: 50XCmax; DMSO treated samples set as 1; in %
Procedure, shortened: as §1

[8] = tested on: isolated rat liver mitochondria; experiment: Mitochondrial swelling (absorbance at 535 nm); type: biochemical; settings: difference in signal between KI and DMSO treated samples at the end of experiments; for Swelling 5XCmax: key: 0 indicates that the drug had no effects (negative)
[9] = molecular target: T1, RCC II (Rattus norvegicus, UniProt P21913+Q641Z9+Q6PCT8+Q920L2); experiment: RCC II activity in submitochondrial particles; type: biochemical; design: key: activity relative to DMSO-treated controls (control set as 1 = 100%); settings: DMSO treated samples set as 1
T1 construct: Submitochondrial particles were prepared by subjecting the intact mitochondria to three successive freeze–thaw cycles; from tissue; host or cells: rat liver mitochondria, used as submitochondrial particles
Procedure, shortened: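 Activity relative to DMSO (set as 1) after 15-min exposure of submitochondrial particles (1 mg/ml) to compound. RCC I is defined as rotenone-sensitive activity and RCC II is followed at 600 nm over 6 min.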

[10] = cited from earlier work

T1 sequence (Q920L2 35-656): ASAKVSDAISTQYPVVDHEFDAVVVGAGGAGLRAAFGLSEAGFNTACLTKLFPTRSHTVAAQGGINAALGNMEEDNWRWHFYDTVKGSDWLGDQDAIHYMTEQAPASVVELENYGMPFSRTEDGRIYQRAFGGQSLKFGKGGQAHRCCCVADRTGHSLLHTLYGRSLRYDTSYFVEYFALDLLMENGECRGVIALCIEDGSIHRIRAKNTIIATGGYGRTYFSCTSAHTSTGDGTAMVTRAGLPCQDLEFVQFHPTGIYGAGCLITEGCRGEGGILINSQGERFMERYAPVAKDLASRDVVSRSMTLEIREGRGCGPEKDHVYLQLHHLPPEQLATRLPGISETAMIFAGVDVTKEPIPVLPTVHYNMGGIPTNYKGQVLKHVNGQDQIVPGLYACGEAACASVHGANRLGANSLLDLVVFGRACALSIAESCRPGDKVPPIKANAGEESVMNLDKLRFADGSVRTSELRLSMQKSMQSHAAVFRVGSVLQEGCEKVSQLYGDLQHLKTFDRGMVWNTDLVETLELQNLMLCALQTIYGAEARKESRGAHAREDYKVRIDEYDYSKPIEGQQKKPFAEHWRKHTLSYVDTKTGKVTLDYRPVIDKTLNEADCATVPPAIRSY
T1 sequence (P21913 31-282): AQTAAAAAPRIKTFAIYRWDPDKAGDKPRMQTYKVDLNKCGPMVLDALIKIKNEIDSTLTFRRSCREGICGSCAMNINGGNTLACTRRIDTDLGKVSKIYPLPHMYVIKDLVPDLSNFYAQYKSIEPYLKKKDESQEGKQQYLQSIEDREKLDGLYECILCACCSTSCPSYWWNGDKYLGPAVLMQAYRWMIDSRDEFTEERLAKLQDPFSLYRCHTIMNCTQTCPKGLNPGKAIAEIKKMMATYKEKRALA
T1 sequence (Q641Z9 1-169): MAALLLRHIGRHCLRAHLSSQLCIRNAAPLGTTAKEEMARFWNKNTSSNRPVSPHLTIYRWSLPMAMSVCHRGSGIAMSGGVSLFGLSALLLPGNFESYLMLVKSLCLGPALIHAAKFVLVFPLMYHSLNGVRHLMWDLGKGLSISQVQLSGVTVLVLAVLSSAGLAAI
T1 sequence (Q6PCT8 57-159): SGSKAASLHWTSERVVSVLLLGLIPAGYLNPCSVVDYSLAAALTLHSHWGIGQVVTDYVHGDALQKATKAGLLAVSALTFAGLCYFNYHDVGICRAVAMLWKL

CC(=O)Nc1cccc(-n2c(=O)n(C3CC3)c(=O)c3c(Nc4ccc(I)cc4F)n(C)c(=O)c(C)c32)c1 [Trametinib]
0: RCC I at 10XCmax [1] | MMP measured by Rhodamine 123 at 1XCmax ([2]; 1XCmax) | MMP measured by Rhodamine 123 at 2.5XCmax ([2]; 2.5XCmax) | MMP measured by Rhodamine 123 at 5XCmax ([2]; 5XCmax) | MMP measured by Rhodamine 123 at 10XCmax ([2]; 10XCmax) | MMP measured by Rhodamine 123 at 20XCmax ([2]; 20XCmax) | MMP measured by Rhodamine 123 at 30XCmax ([2]; 30XCmax) | MMP measured by Rhodamine 123 at 50XCmax ([2]; 50XCmax) | MMP measured by Rhodamine 123 at 100XCmax ([2]; 100XCmax) | State 3 respiration driven by glutamate/malate at 1XCmax ([3]; 1XCmax) | State 3 respiration driven by succinate at 1XCmax ([3]; 1XCmax) | State 4 respiration driven by glutamate/malate at 1XCmax ([3]; 1XCmax) | State 4 respiration driven by succinate at 1XCmax ([3]; 1XCmax) | State 3 respiration driven by glutamate/malate at 2.5XCmax ([3]; 2.5XCmax) | State 3 respiration driven by succinate at 2.5XCmax ([3]; 2.5XCmax) | State 4 respiration driven by glutamate/malate at 2.5XCmax ([3]; 2.5XCmax) | State 4 respiration driven by succinate at 2.5XCmax ([3]; 2.5XCmax) | State 3 respiration driven by glutamate/malate at 5XCmax ([3]; 5XCmax) | State 3 respiration driven by succinate at 5XCmax ([3]; 5XCmax) | State 4 respiration driven by glutamate/malate at 5XCmax ([3]; 5XCmax) | State 4 respiration driven by succinate at 5XCmax ([3]; 5XCmax) | State 3 respiration driven by glutamate/malate at 10XCmax ([3]; 10XCmax) | State 3 respiration driven by succinate at 10XCmax ([3]; 10XCmax) | State 4 respiration driven by glutamate/malate at 10XCmax ([3]; 10XCmax) | State 4 respiration driven by succinate at 10XCmax ([3]; 10XCmax) | State 3 respiration driven by glutamate/malate at 20XCmax ([3]; 20XCmax) | State 3 respiration driven by succinate at 20XCmax ([3]; 20XCmax) | State 4 respiration driven by glutamate/malate at 20XCmax ([3]; 20XCmax) | State 4 respiration driven by succinate at 20XCmax ([3]; 20XCmax) | State 3 respiration driven by glutamate/malate at 30XCmax ([3]; 30XCmax) | State 3 respiration driven by succinate at 30XCmax ([3]; 30XCmax) | State 4 respiration driven by glutamate/malate at 30XCmax ([3]; 30XCmax) | State 4 respiration driven by succinate at 30XCmax ([3]; 30XCmax) | State 3 respiration driven by glutamate/malate at 50XCmax ([3]; 50XCmax) | State 3 respiration driven by succinate at 50XCmax ([3]; 50XCmax) | State 4 respiration driven by glutamate/malate at 50XCmax ([3]; 50XCmax) | State 4 respiration driven by succinate at 50XCmax ([3]; 50XCmax) | State 3 respiration driven by glutamate/malate at 100XCmax ([3]; 100XCmax) | State 3 respiration driven by succinate at 100XCmax ([3]; 100XCmax) | State 4 respiration driven by glutamate/malate at 100XCmax ([3]; 100XCmax) | State 4 respiration driven by succinate at 100XCmax ([3]; 100XCmax) | ROS measured by CM-H2DCFDA at 1XCmax ([4]; 1XCmax) | ROS measured by CM-H2DCFDA at 2.5XCmax ([4]; 2.5XCmax) | ROS measured by CM-H2DCFDA at 5XCmax ([4]; 5XCmax) | ROS measured by CM-H2DCFDA at 10XCmax ([4]; 10XCmax) | ROS measured by CM-H2DCFDA at 20XCmax ([4]; 20XCmax) | ROS measured by CM-H2DCFDA at 30XCmax ([4]; 30XCmax) | ROS measured by CM-H2DCFDA at 50XCmax ([4]; 50XCmax) | ROS measured by CM-H2DCFDA at 100XCmax ([4]; 100XCmax) | RCC V at 5XCmax ([5]; 5XCmax) | RCC V at 50XCmax ([5]; 50XCmax) | RCC III at 100XCmax [6] | RCC IV at 50XCmax [7] | Swelling 1XCmax ([8]; 1XCmax) | Swelling 2.5XCmax ([8]; 2.5XCmax) | Swelling 5XCmax ([8]; 5XCmax) | Swelling 10XCmax ([8]; 10XCmax) | Swelling 20XCmax ([8]; 20XCmax) | Swelling 30XCmax ([8]; 30XCmax) | Swelling 50XCmax ([8]; 50XCmax) | Swelling 100XCmax ([8]; 100XCmax) | RCC II at 1.0XCmax ([9]; 1.0XCmax) | RCC II at 2.5XCmax ([9]; 2.5XCmax) | RCC II at 5XCmax ([9]; 5XCmax) | RCC II at 10XCmax ([9]; 10XCmax) | RCC II at 20XCmax ([9]; 20XCmax) | RCC II at 30XCmax ([9]; 30XCmax) | RCC II at 50XCmax ([9]; 50XCmax) | RCC II at 100XCmax ([9]; 100XCmax) | DILI potential (based on labeling) ([10]; 1 DILI positive, 0 negative according to labeling, ref product labeling) | DILI potential (based on labeling) ([10]; ref FDA product labeling)
